According to patent US20260092061A1, “COMPOUNDS FOR TARGETED PROTEIN DEGRADATION” (Amphista Therapeutics Limited, priority 2022, published 2026):
Read-outs that look alike come from different tables or passages of the source.

Target: T1, BRD9 (Homo sapiens, UniProt Q9H8M2)
T1 sequence (Q9H8M2 1-597): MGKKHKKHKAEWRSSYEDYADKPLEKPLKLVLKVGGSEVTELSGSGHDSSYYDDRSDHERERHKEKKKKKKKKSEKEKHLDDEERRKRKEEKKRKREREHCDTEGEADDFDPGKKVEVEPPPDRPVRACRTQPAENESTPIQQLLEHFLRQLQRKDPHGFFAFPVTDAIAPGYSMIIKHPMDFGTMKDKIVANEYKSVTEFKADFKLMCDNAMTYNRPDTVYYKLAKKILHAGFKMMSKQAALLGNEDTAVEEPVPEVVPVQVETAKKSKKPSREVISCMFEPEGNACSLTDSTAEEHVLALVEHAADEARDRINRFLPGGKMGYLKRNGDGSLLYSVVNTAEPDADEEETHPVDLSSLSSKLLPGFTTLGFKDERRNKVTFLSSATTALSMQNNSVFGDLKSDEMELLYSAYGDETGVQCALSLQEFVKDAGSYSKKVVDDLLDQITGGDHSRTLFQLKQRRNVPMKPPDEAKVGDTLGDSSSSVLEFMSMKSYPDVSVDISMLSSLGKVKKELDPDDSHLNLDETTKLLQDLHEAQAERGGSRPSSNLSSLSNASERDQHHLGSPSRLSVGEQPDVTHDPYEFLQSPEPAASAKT
Experiment: Degradation of BRD9 (IF), immunofluorescence in MV4-11 cells, 24 hours (Assay Protocol 2)
Assay type: cell-based
Parameters: A suspension of MV4-11 cells (ATCC CRL-9591) was prepared; host or cells: MV4-11
Conditions: BRD9 degradation
Protocol: Assay Protocol 2—Degradation of BRD9 (IF)
A suspension of MV4-11 cells (ATCC CRL-9591) was prepared in phenol red-free assay media (IMDM Thermo Scientific 21056023+10% FBS ATCC 302025) and cells were seeded at 20,000 cells per well (45 μL) in sterile black poly-d-lysine coated 384 well plates (Greiner 781948). Compounds were prepared at 1000× final concentration in DMSO, diluted 1:100 in assay media, and 5 μL compound was added to each well of the cell plate. Cells were incubated for 24 hours at 37° C. with 5% CO2. All the following incubations for immunofluorescence staining were at room temperature. 15 μL of 16% PFA was added to each well (3.7% final concentration) and the cells were fixed for 15 min then washed twice with DPBS. Cells were permeabilised with 0.1% Triton X-100 for 10 min, Triton X-100 was removed, then blocked with 1% BSA in DPBS for 1 hour. Cells were stained with 25 μL anti-BRD9 E4Q3F antibody (CST 48306) diluted 1:25600 in 1% BSA in DPBS for 2-3 hours. Wels were washed twice with DPBS then incubated with 25 μL of 1% BSA containing a 1:1000 dilution of Anti-rabbit Alexa Fluor™ 647 secondary antibody (Thero Scientific A21244) and 1 μg/mL Hoechst nuclear counter stain (Abcam ab228551) for 1 hour. Wells were washed twice with DPBS prior to imaging on a Perkin Elmer Operetta CLS with 10× air lens. Images were processed using Harmony High-Content Imaging and Analysis Software (Perkin Elmer) and the mean contrast ratio of Alexa Fluor™ 647 in central nuclei was used to quantify BRD9 protein levels. Data was further analysed using Dotmatics software and % BRD9 remaining was calculated by normalisation to average data from high and low control wells (cells treated with DMSO or 100 nM CFT-8634 respectively).

[1] = Assay protocol 2, read-out: DC50
[2] = MV4-11, Assay protocol 2, read-out: Dmax

For `COc1cc(-c2cn(C)c(=O)c(C)c2C)cc(OC)c1CN1C[C@@H](C)N(Cc2cccc3c2CCN(C(=O)/C(C#N)=C/C(C)(C)C)C3C)C[C@@H]1C` (mixture of isomers) [Compound B111, (E/Z)-2-(5-(((2R,5S)-4-(2,6-dimethoxy-4-(1,4,5-trimethyl-6-oxo-1,6-dihydropyridin-3-yl)benzyl)-2,5-dimethylpiperazin-1-yl)methyl)-1-methyl-1,2,3,4-tetrahydroisoquinoline-2-carbonyl)-4,4-dimethylpent-2-enenitrile], the DC50 [1] was 0.01 to 0.025 µM and the Dmax [2] was > 75%.
`CCC1c2cccc(CN3CCN(Cc4c(OC)cc(-c5cn(C)c(=O)c(C)c5C)cc4OC)CC34CC4)c2CCN1C(=O)/C(C#N)=C/C(C)(C)C` (mixture of isomers) [Compound C15, (E/Z)-2-(5-((7-(2,6-dimethoxy-4-(1,4,5-trimethyl-6-oxo-1,6-dihydropyridin-3-yl)benzyl)-4,7-diazaspiro[2.5]octan-4-yl)methyl)-1-ethyl-1,2,3,4-tetrahydroisoquinoline-2-carbonyl)-4,4-dimethylpent-2-enenitrile] was tested, and the DC50 [1] was < 0.00125 µM and the Dmax [2] was > 75%.
In the case of `COc1cc(-c2cn(C)c(=O)c(C)c2C)cc(OC)c1CN1CCN(Cc2cccc3c2CCN(C(=O)/C(C#N)=C/C(C)(C)C)C3C)CC1=O` (mixture of isomers) [Compound B142], the DC50 [1] is reported as 0.00125 to 0.01 µM and the Dmax [2] is reported as > 75%.
With `COc1cc(-c2cn(C)c(=O)c(C)c2C)cc(OC)c1CN1CCC(Cc2ccc3c(c2)C(C)N(C(=O)/C(C#N)=C/C(C)(C)C)CC3)CC1(C)C` (stereo not shown) [Compound C53] the DC50 [1] was 0.025 to 1 µM and the Dmax [2] was 40 to 70%.
In the case of `COc1cc(-c2cn(C)c(=O)c(C)c2C)cc(OC)c1CN1CCN(Cc2cccc3c2CCN(C(=O)/C(C#N)=C/c2cccc(Br)n2)C3C)C2(CC2)C1` (mixture of isomers) [Compound C29], the DC50 [1] is reported as 0.00125 to 0.01 µM and the Dmax [2] is reported as 70 to 75%.
`COc1cc(-c2cn(C)c(=O)c(C)c2C)cc(OC)c1CN1CCN(Cc2cccc3c2CCN(C(=O)/C(C#N)=C/C(C)(C)F)[C@H]3C)C2(CC2)C1` (mixture of isomers) [Compound C30] showed a DC50 [1] of 0.025 to 1 µM and a Dmax [2] of 40 to 70%.
`COc1cc(-c2cn(C)c(=O)c(C)c2C)cc(OC)c1CN1CCN(Cc2cccc3c2CCN(C(=O)/C(C#N)=C/C(C)(C)C)C3C(F)F)C2(CC2)C1` (mixture of isomers) [Compound C13] was tested, and the DC50 [1] was < 0.00125 µM and the Dmax [2] was > 75%.
With `COc1cc(-c2cn(C)c(=O)c(C)c2C)cc(OC)c1CN1CCN(Cc2cccc3c2CCN(C(=O)/C(C#N)=C/C(C)(C)CF)[C@@H]3C)C2(CC2)C1` (single isomer, unassigned) [Compound B196, (E/Z)-2-(5-((7-(2,6-dimethoxy-4-(1,4,5-trimethyl-6-oxo-1,6-dihydropyridin-3-yl)benzyl)-4,7-diazaspiro[2.5]octan-4-yl)methyl)-1-methyl-1,2,3,4-tetrahydroisoquinoline-2-carbonyl)-5-fluoro-4,4-dimethylpent-2-enenitrile] the DC50 [1] was 0.00125 to 0.01 µM and the Dmax [2] was 70 to 75%.
In the case of `COc1cc(-c2cn(C)c(=O)c(C)c2C)cc(OC)c1CN1C[C@@H](C)N(Cc2cccc3c2CCN(C(=O)/C(C#N)=C/C(C)(C)C)C3C)C[C@H]1C` (mixture of isomers) [Compound B115, (E/Z)-2-(5-(((2R,5R)-4-(2,6-dimethoxy-4-(1,4,5-trimethyl-6-oxo-1,6-dihydropyridin-3-yl)benzyl)-2,5-dimethylpiperazin-1-yl)methyl)-1-methyl-1,2,3,4-tetrahydroisoquinoline-2-carbonyl)-4,4-dimethylpent-2-enenitrile], the DC50 [1] is reported as 0.00125 to 0.01 µM and the Dmax [2] is reported as > 75%.
For `COc1cc(-c2cn(C)c(=O)c(C)c2C)cc(OC)c1CN1CCN(Cc2cccc3c2CCN(C(=O)/C(C#N)=C\C24CC(OC)(C2)C4)C3C)C2(CC2)C1` (mixture of isomers) [Compound B141, (E/Z)-2-(5-((7-(2,6-dimethoxy-4-(1,4,5-trimethyl-6-oxo-1,6-dihydropyridin-3-yl)benzyl)-4,7-diazaspiro[2.5]octan-4-yl)methyl)-1-methyl-1,2,3,4-tetrahydroisoquinoline-2-carbonyl)-3-(3-methoxybicyclo[1.1.1]pentan-1-yl)acrylonitrile], the DC50 [1] was < 0.00125 µM and the Dmax [2] was > 75%.
`COc1cc(-c2cn(C)c(=O)c(C)c2C)cc(OC)c1CN1CCN(Cc2cccc3c2CCN(C(=O)C(C#N)=Cc2cccc(Br)n2)C3C)C(C)(C)C1` (mixture of isomers) [Compound B99, (E/Z)-3-(6-bromopyridin-2-yl)-2-(5-((4-(2,6-dimethoxy-4-(1,4,5-trimethyl-6-oxo-1,6-dihydropyridin-3-yl)benzyl)-2,2-dimethylpiperazin-1-yl)methyl)-1-methyl-1,2,3,4-tetrahydroisoquinoline-2-carbonyl)acrylonitrile] was tested, and the Dmax (Assay protocol 2) was “+ (+ = >40% and <70%)” and the DC50 [1] was 0.025 to 1 µM.
`COc1cc(-c2cn(C)c(=O)c(C)c2C)cc(OC)c1CN1CCN(Cc2cccc3c2CCN(C(=O)/C(C#N)=C/C(C)(C)C)C3C)C2CC21` (mixture of isomers) [Compound B148, (E/Z)-2-(5-((5-(2,6-dimethoxy-4-(1,4,5-trimethyl-6-oxo-1,6-dihydropyridin-3-yl)benzyl)-2,5-diazabicyclo[4.1.0]heptan-2-yl)methyl)-1-methyl-1,2,3,4-tetrahydroisoquinoline-2-carbonyl)-4,4-dimethylpent-2-enenitrile] was tested, and the DC50 [1] was 0.00125 to 0.01 µM and the Dmax [2] was 40 to 70%.
In the case of `COc1cc(-c2cn(C)c(=O)c(C)c2C)cc(OC)c1CN1CCC(Cc2cccc3c2CCN(C(=O)/C(C#N)=C/C(C)(C)CF)C3C(C)C)CC1` (mixture of isomers) [Compound C80], the DC50 [1] is reported as 0.00125 to 0.01 µM and the Dmax [2] is reported as 70 to 75%.
`COc1cc(-c2cn(C)c(=O)c(C)c2C)cc(OC)c1CN1CCN(Cc2cccc3c2CCN(C(=O)/C(C#N)=C/C(C)(C)C)C3C(C)C)C2(CC2)C1` (mixture of isomers) [Compound C8, (E/Z)-2-(5-((7-(2,6-dimethoxy-4-(1,4,5-trimethyl-6-oxo-1,6-dihydropyridin-3-yl)benzyl)-4,7-diazaspiro[2.5]octan-4-yl)methyl)-1-isopropyl-1,2,3,4-tetrahydroisoquinoline-2-carbonyl)-4,4-dimethylpent-2-enenitrile] was tested, and the DC50 [1] was < 0.00125 µM and the Dmax [2] was > 75%.
In the case of `COc1cc(-c2cn(C)c(=O)c(C)c2C)ccc1OC1CCN(Cc2cccc3c2CCN(C(=O)/C(C#N)=C/C(C)(C)C)C3C)C2(CC2)C1` (mixture of isomers) [Compound C72, (E/Z)-2-(5-((7-(2-methoxy-4-(1,4,5-trimethyl-6-oxo-1,6-dihydropyridin-3-yl)phenoxy)-4-azaspiro[2.5]octan-4-yl)methyl)-1-methyl-1,2,3,4-tetrahydroisoquinoline-2-carbonyl)-4,4-dimethylpent-2-enenitrile], the DC50 [1] is reported as 0.025 to 1 µM and the Dmax [2] is reported as > 75%.
For `COc1cc(-c2cn(C)c(=O)c(C)c2C)cc(OC)c1C(=O)N1CCN(C(=O)/C(C#N)=C/C(C)(C)C)CC1` [BRD9s, (E/Z)-2-(4-(2,6-dimethoxy-4-(1,4,5-trimethyl-6-oxo-1,6-dihydropyridin-3-yl)benzoyl)piperazine-1-carbonyl)-4,4-dimethylpent-2-enenitrile], the Dmax (MV4-11, Table 4, determined according to Assay Protocol 2, read-out: Dmax^2) was 50 to 70% and the DC50 (Table 4, determined according to Assay Protocol 2, read-out: DC50^2) was < 0.025 µM.
With `COc1cc(-c2cn(C)c(=O)c(C)c2C)cc(OC)c1CN1CC(Oc2cccc(C3CCCN3C(=O)/C(C#N)=C/C(C)(C)C)c2)C1` (mixture of isomers) [Compound B62, (E/Z)-2-(2-(3-((1-(2,6-dimethoxy-4-(1,4,5-trimethyl-6-oxo-1,6-dihydropyridin-3-yl)benzyl)azetidin-3-yl)oxy)phenyl)pyrrolidine-1-carbonyl)-4,4-dimethylpent-2-enenitrile] the DC50 [1] was 0.00125 to 0.01 µM and the Dmax [2] was > 75%.
